Reference: patent publication US20260076970A1, “CANCER TREATMENT USING MTDP INHIBITORS AND PLK1 INHIBITORS” (Cardiff Oncology, Inc., priority 2022, published 2026)
Where two headings read alike, the source gives them in different places.

Experiments:
[1] = target: panel of 63 kinases other than PLK1; test: kinase panel selectivity (63 kinases); format: biochemical
PLK1 = PLK1 (Homo sapiens, UniProt P53350); test: biochemical assays, panel of 296 kinases; details: including other PLK members
CYP1A2 = target: T1, CYP1A2 (Homo sapiens, UniProt P05177); test: CYP inhibition in human liver microsomes; format: in vitro ADME
T1 construct: was investigated using human liver microsomes; from tissue; host or cells: human liver microsomes
T1 sequence (P05177 1-516): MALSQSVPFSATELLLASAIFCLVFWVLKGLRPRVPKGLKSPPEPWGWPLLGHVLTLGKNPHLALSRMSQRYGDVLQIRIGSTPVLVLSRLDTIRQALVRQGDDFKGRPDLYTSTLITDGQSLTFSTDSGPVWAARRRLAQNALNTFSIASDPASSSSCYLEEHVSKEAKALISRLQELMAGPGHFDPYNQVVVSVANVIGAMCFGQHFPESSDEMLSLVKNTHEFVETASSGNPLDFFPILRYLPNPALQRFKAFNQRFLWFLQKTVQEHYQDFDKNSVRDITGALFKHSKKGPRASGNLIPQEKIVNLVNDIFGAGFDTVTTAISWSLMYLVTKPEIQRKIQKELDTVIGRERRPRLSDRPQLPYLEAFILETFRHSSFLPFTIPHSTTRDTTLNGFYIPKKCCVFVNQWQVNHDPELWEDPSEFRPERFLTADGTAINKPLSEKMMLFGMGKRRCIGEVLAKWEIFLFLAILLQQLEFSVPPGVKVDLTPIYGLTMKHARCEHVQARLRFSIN
Description: (§1) In Table 1, IC50 is shown as mean±SEM (standard error of mean).

[2] = test system: CYP2C8, CYP2C9, CYP2C19, CYP2D6, CYP3A4; test: CYP inhibition in human liver microsomes, summary over isoforms; format: in vitro ADME; details: range over isoforms
Description: as §1

AML cell lines = test: cell proliferation in AML cell lines; format: cell-based
[3] = test system: HT29 human colon adenocarcinoma xenografts; test: HT29 xenograft, combination with irinotecan; format: in vivo; details: in combination with irinotecan
[4] = test system: disseminated model of AML; test: disseminated model of AML, combination with cytarabine; format: in vivo; details: in combination therapy with cytarabine
[5] = pharmacologic parameters of onvansertib; format: in vivo
[6] = concentration for anti-tumoral activity in mice; format: in vivo
Description: as §1

patients with mCRPC = test: onvansertib plus abiraterone in patients with mCRPC (NCT03414034); format: in vivo, human
SUM159 xenografts = test: SUM159 mouse xenograft; format: in vivo; details: at 21 days; onvansertib 120 mg/Kg P.O. day 1 and 2 weekly or paclitaxel 10 mg/Kg I.P. day 1 weekly
clinical = details: human, in vivo, po
[7] = test system: metastatic breast cancer patients; details: cited from earlier work
patients with AML [8] = details: intravenously in combination with LDAC; treatment-naïve AML; cited from earlier work
patients with AML [9] = details: in combination with LDAC; cited from earlier work
[10] = test system: patients with metastatic TNBC; details: with chemotherapy vs chemotherapy and placebo; tumors strongly positive for PD-L1 (CPS>10); cited from earlier work

Chain of PLK1 (P53350 whole entry): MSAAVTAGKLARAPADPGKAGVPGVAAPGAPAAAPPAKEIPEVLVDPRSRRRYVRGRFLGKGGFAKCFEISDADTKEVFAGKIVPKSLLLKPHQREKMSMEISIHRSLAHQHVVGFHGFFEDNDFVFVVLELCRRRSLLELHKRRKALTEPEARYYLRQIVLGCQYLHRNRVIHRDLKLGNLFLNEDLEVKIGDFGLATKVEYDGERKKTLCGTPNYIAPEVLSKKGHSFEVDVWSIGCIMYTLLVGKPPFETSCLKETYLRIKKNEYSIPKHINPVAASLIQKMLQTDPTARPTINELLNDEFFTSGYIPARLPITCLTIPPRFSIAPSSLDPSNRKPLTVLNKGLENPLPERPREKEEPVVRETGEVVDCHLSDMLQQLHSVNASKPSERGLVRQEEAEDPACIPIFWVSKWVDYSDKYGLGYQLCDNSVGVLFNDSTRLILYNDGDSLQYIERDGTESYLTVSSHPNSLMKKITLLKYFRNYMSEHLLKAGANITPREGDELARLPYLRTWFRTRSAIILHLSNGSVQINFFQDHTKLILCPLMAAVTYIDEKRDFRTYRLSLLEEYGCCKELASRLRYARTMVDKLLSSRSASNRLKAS

**Q.** Which IC50 [1] does the source give for `CN1CCN(c2ccc(OC(F)(F)F)c(Nc3ncc4c(n3)-c3c(c(C(N)=O)nn3CCO)CC4)c2)CC1` [onvansertib, 1-(2-hydroxyethyl)-8-{[5-(4-methylpiperazin-1-yl)-2-(trifluoromethoxy)phenyl]amino}-4,5-dihydro-1H-pyrazolo[4,3-h]quinazoline-3-carboxamide] here?
**A.** The IC50 was over 0.5 µM.

**Q.** What about the “specificity for PLK1 among a panel of 296 kinases” value (PLK1) of the same molecule?
**A.** The value was “high specificity”.

**Q.** What about the “inhibitory effects against CYP1A2” value (CYP1A2) of the same molecule?
**A.** The value was “No significant inhibitory effects”.

**Q.** And the IC50 [2]?
**A.** Its IC50 is 20 to 66 µM.

**Q.** And the “inhibition of cell proliferation” value (AML cell lines)?
**A.** The value was “nanomolar concentrations”.

**Q.** And the “tumor regression compared to each agent alone” value [3]?
**A.** Its value is “enhanced tumor regression”.

**Q.** And the survival of animals [4]?
**A.** Its survival of animals is “prolonged survival”.

**Q.** What about the half-life ([5]; in vivo) of the same molecule?
**A.** Its half-life is 24 h.

**Q.** What about the oral bioavailability ([5]; rodent and nonrodent species) of the same molecule?
**A.** The oral bioavailability was “good oral bioavailability”.

**Q.** And the “concentrations relevant to achieve significant anti-tumoral activity” value [6]?
**A.** Its value is about 1 µM.

**Q.** What about the “evaluable patients who met the primary efficacy endpoint” value (patients with mCRPC; 12 mg/m^2, 14+7 regimen with abiraterone, 5 evaluable) of the same molecule?
**A.** The value was 60%.

**Q.** And the hematological toxicities reported (patients with mCRPC; 12 mg/m^2 QD 14+7 regimen with abiraterone QD, 9 patients)?
**A.** The hematological toxicities reported was “no Grade 2 or higher hematological toxicities”.

**Q.** What about the “evaluable patients who met the primary efficacy endpoint” value (patients with mCRPC; 18 mg/m^2, 5+9 regimen, 10 evaluable) of the same molecule?
**A.** The value was 30%.

**Q.** What about the “tumor growth inhibition, difference compared to controls” value (SUM159 xenografts) of the same molecule?
**A.** Its value is −0.406.

**Q.** And the half-life (clinical)?
**A.** The half-life was 20 to 30 h.

**Q.** Which “tumor growth inhibition, difference compared to controls” value (SUM159 xenografts) does the source give for `CC(=O)O[C@H]1C(=O)[C@@]2(C)[C@H]([C@H](OC(=O)c3ccccc3)[C@]3(O)C[C@H](OC(=O)[C@H](O)[C@@H](NC(=O)c4ccccc4)c4ccccc4)C(C)=C1C3(C)C)[C@]1(OC(C)=O)CO[C@@H]1C[C@@H]2O` [paclitaxel, 5β,20-Epoxy-1,2α,4,7β,10β,13α-hexahydroxytax-11-en-9-one 4,10-diacetate 2-benzoate 13-ester with (2R,3S)-N-benzoyl-3-phenylisoserine] here?
**A.** Its value is −0.337.

**Q.** What about the “Grade 3 anemia” value ([7]; 80 mg/m^2 weekly, 212 patients) of the same molecule?
**A.** Its value is 9%.

**Q.** What about the “Grade 3 or 4 neutropenia” value ([7]; 80 mg/m^2 weekly, 212 patients) of the same molecule?
**A.** Its value is 15%.

**Q.** What about the responses ([7]; 45 assessable patients with prior taxane therapy) of the same molecule?
**A.** The responses was 15.6%.

**Q.** What about the responses ([7]; 131 assessable patients with prior anthracycline therapy) of the same molecule?
**A.** The responses was 17.6%.

**Q.** And the overall response rate ([7]; 177 assessable patients)?
**A.** The overall response rate was 21.5%.

**Q.** What about the “median time to progression” value ([7]; assessable patients) of the same molecule?
**A.** Its value is 142 days.

**Q.** What about the “grade 3 neuropathy” value ([7]; in vivo) of the same molecule?
**A.** The value was 9%.

**Q.** And the “grade 4 neuropathy” value ([7]; in vivo)?
**A.** Its value is “no patient”.

**Q.** What about the “median number of courses of therapy until development of grade 2 or 3 neuropathy” value ([7]; in vivo) of the same molecule?
**A.** The value was “five”.

**Q.** And the “median time to progression” value ([7]; no prior chemotherapy for metastatic disease)?
**A.** Its value is 174 days.

**Q.** What about the “median time to progression” value ([7]; one prior regimen) of the same molecule?
**A.** Its value is 140 days.

**Q.** What about the “median time to progression” value ([7]; two prior regimens) of the same molecule?
**A.** The value was 85 days.

**Q.** Which “OS compared with LDAC alone” value (patients with AML [8]) does the source give for `CC[C@@H]1C(=O)N(C)c2cnc(Nc3ccc(C(=O)N[C@H]4CC[C@H](N5CCN(CC6CC6)CC5)CC4)cc3OC)nc2N1C(C)C` [volasertib] here?
**A.** Its value is “significant increase in OS”.

**Q.** What about the “benefit of the combination” value (patients with AML [9]) of the same molecule?
**A.** Its value is “no benefit”.

**Q.** What about the “risk of severe infections” value (patients with AML [9]) of the same molecule?
**A.** The value was “increased risk of severe infections”.

**Q.** With “Pembrolizumab: a monoclonal antibody directed against the PD-1 receptor” as the molecule, how does the “reduction of the risk of death” value [10] read?
**A.** The value was 27%.
